Reference: ChEMBL document CHEMBL1201862, “PubChem BioAssay data set” (2004)
The source made the active and inactive calls.

Experiments:
[1] = THP-1 cell cytotoxicity, dose response, cytotoxicity control for non-replicating M. tuberculosis project (AID 489025); type: functional
[2] = Vero E6 cell cytotoxicity, dose response, cytotoxicity control for non-replicating M. tuberculosis project, secondary assay (AID 492998); type: functional, VeroE6; settings: Vero C1008
[3] = cells; type: functional
[4] = molecular target: Peroxisome proliferator-activated receptor gamma/Nuclear receptor coactivator 2 (Homo sapiens, UniProt P37231); type: functional;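 further: agonist potency for raising coactivator recruitment to the receptor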
Peroxisome proliferator-activated receptor gamma/Nuclear receptor coactivator 2, sequence (P37231 whole entry): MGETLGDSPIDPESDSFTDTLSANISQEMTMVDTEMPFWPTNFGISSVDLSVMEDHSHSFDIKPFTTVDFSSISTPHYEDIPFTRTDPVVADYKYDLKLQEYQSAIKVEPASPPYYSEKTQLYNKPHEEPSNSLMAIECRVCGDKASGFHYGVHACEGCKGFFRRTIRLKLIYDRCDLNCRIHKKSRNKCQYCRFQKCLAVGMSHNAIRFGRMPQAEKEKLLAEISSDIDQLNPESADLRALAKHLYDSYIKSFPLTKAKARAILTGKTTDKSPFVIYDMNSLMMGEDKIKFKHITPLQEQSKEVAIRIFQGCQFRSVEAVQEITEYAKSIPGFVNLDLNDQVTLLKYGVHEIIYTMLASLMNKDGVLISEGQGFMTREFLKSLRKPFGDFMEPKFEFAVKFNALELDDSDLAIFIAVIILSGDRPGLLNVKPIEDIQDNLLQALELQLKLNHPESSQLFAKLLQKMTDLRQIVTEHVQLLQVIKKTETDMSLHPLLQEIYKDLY
Peroxisome proliferator-activated receptor gamma/Nuclear receptor coactivator 2, sequence (Q15596 whole entry, further chain): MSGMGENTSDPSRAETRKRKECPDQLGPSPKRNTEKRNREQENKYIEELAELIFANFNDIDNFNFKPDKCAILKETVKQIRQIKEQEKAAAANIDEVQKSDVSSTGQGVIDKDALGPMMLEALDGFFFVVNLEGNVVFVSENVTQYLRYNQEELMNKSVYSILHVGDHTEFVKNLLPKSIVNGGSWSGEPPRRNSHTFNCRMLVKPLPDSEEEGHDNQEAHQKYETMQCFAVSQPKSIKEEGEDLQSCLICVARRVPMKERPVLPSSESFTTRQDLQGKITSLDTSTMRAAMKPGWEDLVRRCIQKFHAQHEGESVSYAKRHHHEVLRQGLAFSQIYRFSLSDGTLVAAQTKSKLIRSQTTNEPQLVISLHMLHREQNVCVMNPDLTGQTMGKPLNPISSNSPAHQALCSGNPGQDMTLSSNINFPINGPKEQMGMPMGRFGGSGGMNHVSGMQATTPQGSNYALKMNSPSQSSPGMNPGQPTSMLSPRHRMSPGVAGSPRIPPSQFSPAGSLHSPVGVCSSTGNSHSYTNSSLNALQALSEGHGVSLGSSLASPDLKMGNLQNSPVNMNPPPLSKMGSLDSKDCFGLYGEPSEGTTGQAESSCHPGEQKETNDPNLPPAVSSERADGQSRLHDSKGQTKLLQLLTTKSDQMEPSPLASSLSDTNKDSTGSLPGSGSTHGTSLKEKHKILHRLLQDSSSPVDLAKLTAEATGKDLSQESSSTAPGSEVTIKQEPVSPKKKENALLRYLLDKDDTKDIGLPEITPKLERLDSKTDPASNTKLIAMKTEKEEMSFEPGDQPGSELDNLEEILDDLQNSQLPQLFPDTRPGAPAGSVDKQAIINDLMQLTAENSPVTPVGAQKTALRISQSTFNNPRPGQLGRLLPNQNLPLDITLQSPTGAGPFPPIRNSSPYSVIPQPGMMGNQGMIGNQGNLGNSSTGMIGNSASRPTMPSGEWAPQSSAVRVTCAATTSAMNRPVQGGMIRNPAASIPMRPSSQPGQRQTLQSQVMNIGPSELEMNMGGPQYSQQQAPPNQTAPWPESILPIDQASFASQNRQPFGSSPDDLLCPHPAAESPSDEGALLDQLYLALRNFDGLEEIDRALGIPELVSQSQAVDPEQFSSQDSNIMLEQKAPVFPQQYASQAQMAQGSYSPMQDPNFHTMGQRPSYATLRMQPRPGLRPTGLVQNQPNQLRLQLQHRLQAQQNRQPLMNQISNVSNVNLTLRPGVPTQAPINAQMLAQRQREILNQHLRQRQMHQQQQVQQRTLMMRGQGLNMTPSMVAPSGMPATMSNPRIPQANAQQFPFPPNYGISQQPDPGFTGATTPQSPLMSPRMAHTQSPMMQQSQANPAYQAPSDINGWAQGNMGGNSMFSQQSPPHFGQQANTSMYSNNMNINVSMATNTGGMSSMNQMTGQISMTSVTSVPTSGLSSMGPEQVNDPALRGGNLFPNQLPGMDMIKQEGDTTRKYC

[5] = molecular target: Peroxisome proliferator-activated receptor gamma/Nuclear receptor coactivator 1 (Homo sapiens, UniProt P37231); type: functional;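 further: agonist potency as compounds enhance coactivator SRC-1 recruitment to PPARgamma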
[6] = molecular target: Peroxisome proliferator-activated receptor gamma/Nuclear receptor coactivator 3 (Homo sapiens, UniProt P37231); type: functional;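 further: agonist potency for raising coactivator recruitment to the receptor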
Peroxisome proliferator-activated receptor gamma/Nuclear receptor coactivator 3, sequence (P37231 whole entry): as the sequence (P37231 whole entry) above
Peroxisome proliferator-activated receptor gamma/Nuclear receptor coactivator 3, sequence (Q9Y6Q9 whole entry, further chain): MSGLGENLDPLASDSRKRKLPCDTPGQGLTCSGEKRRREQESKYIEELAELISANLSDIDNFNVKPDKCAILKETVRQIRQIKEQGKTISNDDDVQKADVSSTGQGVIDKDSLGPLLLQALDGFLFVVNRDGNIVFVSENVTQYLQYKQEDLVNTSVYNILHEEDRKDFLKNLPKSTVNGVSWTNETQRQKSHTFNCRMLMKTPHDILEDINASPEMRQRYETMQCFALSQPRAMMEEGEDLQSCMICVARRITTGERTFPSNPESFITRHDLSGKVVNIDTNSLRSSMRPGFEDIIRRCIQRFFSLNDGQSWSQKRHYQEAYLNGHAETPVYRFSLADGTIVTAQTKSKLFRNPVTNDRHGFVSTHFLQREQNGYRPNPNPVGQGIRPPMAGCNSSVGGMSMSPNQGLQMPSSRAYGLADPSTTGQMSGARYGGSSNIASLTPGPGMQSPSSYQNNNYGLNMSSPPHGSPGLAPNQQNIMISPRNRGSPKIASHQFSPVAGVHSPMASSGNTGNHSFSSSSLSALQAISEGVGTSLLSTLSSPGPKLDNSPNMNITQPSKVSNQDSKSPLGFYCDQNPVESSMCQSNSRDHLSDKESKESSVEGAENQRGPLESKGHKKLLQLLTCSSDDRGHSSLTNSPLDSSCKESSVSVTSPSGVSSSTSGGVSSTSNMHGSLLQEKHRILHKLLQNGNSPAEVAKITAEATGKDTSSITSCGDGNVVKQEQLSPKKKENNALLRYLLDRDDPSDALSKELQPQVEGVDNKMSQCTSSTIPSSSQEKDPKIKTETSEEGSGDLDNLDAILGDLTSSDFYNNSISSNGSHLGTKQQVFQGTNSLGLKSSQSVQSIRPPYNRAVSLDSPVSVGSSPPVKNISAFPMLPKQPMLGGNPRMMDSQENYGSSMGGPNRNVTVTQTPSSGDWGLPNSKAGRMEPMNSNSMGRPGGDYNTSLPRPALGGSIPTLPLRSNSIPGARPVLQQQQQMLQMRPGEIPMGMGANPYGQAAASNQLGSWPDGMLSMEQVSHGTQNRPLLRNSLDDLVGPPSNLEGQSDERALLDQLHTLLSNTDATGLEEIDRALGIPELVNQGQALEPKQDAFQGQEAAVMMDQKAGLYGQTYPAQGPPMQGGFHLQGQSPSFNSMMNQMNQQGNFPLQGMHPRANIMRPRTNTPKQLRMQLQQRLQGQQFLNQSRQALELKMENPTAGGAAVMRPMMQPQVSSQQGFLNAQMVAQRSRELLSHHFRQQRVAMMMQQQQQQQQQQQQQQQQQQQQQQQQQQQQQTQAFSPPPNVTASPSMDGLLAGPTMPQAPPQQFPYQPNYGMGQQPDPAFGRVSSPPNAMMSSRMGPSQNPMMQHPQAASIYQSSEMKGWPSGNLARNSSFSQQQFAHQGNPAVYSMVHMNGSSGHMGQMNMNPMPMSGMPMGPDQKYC

[7] = molecular target: Beta-galactosidase (Escherichia coli, UniProt Q8VNN2); experiment: beta-galactosidase enzyme inhibitors and activators, dose response, artefact control for CCR6 antagonist project, biochemical, E. coli enzyme, set 3 (AID 504712); type: functional
Beta-galactosidase, sequence (Q8VNN2 whole entry): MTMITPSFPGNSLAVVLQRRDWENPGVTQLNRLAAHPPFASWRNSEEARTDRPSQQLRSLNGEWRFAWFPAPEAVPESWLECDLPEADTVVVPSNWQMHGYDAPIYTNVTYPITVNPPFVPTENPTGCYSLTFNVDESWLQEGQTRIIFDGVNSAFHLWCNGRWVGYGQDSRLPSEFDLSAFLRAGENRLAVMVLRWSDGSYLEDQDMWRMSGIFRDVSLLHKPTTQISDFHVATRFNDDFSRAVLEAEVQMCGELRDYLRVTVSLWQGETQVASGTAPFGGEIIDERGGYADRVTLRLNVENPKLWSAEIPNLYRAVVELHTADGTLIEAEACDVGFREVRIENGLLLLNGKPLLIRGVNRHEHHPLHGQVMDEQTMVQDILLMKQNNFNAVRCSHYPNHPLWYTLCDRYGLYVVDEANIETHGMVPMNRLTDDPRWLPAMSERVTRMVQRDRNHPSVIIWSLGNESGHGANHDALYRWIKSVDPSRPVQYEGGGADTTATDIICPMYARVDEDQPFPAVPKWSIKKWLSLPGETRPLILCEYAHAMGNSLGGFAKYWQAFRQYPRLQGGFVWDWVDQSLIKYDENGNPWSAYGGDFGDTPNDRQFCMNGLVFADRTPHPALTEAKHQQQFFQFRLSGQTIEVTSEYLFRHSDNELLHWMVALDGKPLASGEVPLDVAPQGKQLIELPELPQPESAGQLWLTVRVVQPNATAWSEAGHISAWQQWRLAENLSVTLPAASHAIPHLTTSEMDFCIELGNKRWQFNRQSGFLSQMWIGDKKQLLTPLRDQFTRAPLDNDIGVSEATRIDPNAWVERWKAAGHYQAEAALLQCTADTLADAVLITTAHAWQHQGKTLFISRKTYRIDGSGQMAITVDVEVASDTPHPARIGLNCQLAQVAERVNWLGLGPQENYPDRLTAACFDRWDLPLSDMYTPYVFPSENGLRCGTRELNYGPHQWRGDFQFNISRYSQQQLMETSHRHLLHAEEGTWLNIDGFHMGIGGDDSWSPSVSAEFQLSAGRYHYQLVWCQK

[8] = molecular target: T1, Leucine aminopeptidase (Plasmodium falciparum 3D7, UniProt Q8IL11); experiment: P. falciparum M17LAP inhibitors, primary screen, biochemical, fluorogenic H-Leu-NHMec substrate, 1536-well (AID 1619); type: functional
T1 sequence (Q8IL11 whole entry): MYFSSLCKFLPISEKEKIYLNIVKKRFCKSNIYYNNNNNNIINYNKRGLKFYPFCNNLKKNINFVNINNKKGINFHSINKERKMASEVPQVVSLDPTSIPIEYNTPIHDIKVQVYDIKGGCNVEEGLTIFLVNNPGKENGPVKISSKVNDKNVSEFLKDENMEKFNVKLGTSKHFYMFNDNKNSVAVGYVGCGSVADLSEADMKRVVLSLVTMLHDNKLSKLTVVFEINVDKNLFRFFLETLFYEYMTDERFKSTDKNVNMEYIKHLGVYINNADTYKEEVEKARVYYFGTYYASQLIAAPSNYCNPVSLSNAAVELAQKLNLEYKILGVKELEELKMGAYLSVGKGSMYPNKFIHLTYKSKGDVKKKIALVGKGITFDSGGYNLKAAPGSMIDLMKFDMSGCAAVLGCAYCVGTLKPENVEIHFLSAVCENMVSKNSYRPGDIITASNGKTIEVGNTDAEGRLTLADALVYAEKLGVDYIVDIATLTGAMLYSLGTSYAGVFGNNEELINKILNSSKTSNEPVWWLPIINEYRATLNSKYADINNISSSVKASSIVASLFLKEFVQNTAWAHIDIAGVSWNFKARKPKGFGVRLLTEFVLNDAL

[9] = molecular target: T2, Aminopeptidase N (Plasmodium falciparum FcB1/Columbia, UniProt O96935); experiment: P. falciparum M1AAP inhibitors, biochemical, fluorogenic H-Leu-NHMec substrate, 1536-well (AID 1445); set-up: species or system Plasmodium falciparum 3D7, 3D7
T2 sequence (O96935 whole entry): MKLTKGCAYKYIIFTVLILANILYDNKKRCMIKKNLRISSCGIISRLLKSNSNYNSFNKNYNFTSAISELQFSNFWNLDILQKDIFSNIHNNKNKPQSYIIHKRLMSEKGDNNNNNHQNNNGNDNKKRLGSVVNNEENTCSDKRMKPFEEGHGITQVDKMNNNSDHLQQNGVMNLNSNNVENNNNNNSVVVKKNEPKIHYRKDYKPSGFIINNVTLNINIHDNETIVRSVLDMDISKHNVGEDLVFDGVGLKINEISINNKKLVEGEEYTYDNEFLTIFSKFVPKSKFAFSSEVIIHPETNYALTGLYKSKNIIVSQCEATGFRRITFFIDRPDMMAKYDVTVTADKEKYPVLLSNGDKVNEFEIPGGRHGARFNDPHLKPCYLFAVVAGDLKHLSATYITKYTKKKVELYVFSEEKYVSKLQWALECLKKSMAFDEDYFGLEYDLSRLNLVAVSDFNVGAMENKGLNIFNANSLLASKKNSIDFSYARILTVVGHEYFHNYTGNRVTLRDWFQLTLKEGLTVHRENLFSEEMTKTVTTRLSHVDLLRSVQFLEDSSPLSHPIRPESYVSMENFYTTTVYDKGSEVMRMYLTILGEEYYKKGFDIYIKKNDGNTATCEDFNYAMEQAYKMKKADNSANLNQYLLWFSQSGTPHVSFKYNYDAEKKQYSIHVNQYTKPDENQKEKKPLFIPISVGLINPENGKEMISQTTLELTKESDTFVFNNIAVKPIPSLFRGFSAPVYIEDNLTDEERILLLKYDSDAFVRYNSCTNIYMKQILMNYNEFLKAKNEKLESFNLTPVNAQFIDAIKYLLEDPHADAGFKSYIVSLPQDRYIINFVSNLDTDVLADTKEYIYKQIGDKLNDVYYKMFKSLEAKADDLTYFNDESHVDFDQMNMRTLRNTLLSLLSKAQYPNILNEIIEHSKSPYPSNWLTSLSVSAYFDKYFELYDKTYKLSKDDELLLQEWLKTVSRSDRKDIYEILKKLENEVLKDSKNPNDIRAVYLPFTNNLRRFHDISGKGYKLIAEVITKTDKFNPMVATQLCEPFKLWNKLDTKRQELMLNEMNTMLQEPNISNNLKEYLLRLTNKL

[10] = A cytotoxicity screen of small molecule inhibitors of the PhoP region in Salmonella typhi identified in the primary screen. [Related pubchem assays: 1850, 1864, 1985 ]; type: functional
[11] = molecular target: T3, Short transient receptor potential channel 4 (Mus musculus, UniProt Q9QUQ5); experiment: mouse TRPC4 channel activators, dose response, cell-based, HEK293 TRPC4/mu-opioid, Fluo-4 calcium (AID 434937); type: functional
T3 sequence (Q9QUQ5 whole entry): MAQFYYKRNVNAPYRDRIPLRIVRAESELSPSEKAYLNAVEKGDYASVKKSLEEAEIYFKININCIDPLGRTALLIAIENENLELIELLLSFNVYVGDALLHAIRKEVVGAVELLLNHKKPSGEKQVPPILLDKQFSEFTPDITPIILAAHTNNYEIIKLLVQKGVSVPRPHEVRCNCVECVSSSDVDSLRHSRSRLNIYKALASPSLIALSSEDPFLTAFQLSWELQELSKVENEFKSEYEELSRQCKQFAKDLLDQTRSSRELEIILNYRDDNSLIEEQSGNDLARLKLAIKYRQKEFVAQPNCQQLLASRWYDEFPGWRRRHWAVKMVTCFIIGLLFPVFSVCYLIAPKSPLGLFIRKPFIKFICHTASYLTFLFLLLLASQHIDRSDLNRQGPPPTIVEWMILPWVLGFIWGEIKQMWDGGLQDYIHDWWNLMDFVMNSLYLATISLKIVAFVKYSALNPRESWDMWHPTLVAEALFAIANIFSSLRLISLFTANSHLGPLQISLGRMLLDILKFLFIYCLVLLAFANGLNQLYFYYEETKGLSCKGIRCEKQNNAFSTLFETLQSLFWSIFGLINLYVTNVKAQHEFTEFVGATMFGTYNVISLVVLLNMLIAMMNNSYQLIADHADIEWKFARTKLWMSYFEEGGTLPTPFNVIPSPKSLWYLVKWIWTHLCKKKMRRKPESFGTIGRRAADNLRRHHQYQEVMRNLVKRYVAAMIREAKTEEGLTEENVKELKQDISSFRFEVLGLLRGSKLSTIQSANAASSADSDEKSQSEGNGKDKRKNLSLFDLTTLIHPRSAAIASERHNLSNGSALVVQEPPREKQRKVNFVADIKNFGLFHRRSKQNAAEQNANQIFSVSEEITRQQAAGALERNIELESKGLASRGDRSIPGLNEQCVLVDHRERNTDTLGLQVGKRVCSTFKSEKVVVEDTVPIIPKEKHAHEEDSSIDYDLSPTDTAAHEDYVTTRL

[12] = tested on: Streptococcus sp. 'group A'; experiment: growth inhibition of control SK(-) GAS strain, dose response, counter-screen for streptokinase expression inhibitor project, luminescence, kanamycin, BacTiterGlo, confirmation (AID 1900); type: functional, organism-based
[13] = molecular target: T4, Streptokinase A (Streptococcus pyogenes serotype M1, UniProt P10520); experiment: S. pyogenes streptokinase expression inhibitors, potency, dose response, plasminogen activation absorbance, OD405 (AID 1914); type: functional, Streptococcus pyogenes M1 GAS;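 further: secreted streptokinase activity via plasminogen activation per viability signal from cell pellet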
T4 sequence (P10520 whole entry): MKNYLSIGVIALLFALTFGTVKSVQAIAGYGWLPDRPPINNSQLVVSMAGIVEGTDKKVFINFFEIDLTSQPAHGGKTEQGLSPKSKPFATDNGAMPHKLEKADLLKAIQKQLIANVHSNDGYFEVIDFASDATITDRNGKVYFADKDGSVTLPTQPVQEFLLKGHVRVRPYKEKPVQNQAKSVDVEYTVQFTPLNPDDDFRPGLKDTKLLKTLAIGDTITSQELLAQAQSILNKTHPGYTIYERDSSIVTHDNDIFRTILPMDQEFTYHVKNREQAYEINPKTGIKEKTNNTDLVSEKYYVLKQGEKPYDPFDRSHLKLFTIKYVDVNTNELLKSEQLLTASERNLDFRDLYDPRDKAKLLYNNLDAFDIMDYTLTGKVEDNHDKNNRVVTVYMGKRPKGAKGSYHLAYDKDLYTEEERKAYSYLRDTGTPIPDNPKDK

[14] = tested on: Streptococcus; experiment: Group A Streptococcus viability loss, dose response, counter-screen for streptokinase expression inhibitor project, luminescence, BacTiterGlo (AID 1915); type: functional, organism-based;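 further: potency for reduction of bacterial viability or growth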
[15] = cytotoxicity in HEK-293T cells, dose response, cytotoxicity control for TCR NF-kB inhibitor project, luminescence, T-cell screen hits (AID 489026); type: functional, cell-based;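 further: cells exposed to compound about 14 hours before the viability readout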
[16] = molecular target: Induced myeloid leukemia cell differentiation protein Mcl-1 (Homo sapiens, UniProt Q07820); type: functional
[17] = tested on: Vero; experiment: cells; type: functional; settings: Chlorocebus sabaeus
[18] = Luminescence Cell-Based Dose Confirmation HTS to Identify Activators of 5'UTR Stem-Loop Driven Alpha-Synuclein mRNA Translation in H4 Neuroglioblastoma Cells. [Related pubchem assays: 1829 (Project Summary), 1814 (Primary HTS)]; type: functional
[19] = Luminescence Cell-Based Dose Response HTS to Identify Activators of Luciferase Translation or Activity in H4 […] Cells. [Related pubchem assays: 1829 (Project Summary), 1814 (Primary HTS)]; type: functional
[20] = tested on: H4; experiment: Luminescence Cell-Based Dose Response HTS to Identify Activators of 5'UTR Stem-Loop Driven Prion Protein mRNA Translation in H4 Neuroglioblastoma Cells. [Related pubchem assays: 1829 (Project Summary), 1814 (Primary HTS)]; type: functional; settings: Homo sapiens

## Clc1cccc(OCCN2CCN(CCOc3cccc(Cl)c3)CC2)c1
[1]
  CC50: 31.3 µM (active)
[2]
  CC50: > 20 µM (active)
[3]
  IC50: 23.9 µM (active)

## Cc1cc(C)c(C(=O)CSc2nnc(-c3ccccc3Br)o2)cc1C
[4]
  EC50: 32.6 µM (not active)
[5]
  EC50: 51.9 µM (not active)
[6]
  EC50: 69.8 µM (not active)

## CC1Cc2ccccc2N1C(=S)NC(=O)c1cccc(Br)c1 (stereo not drawn)
[7]
  IC50: > 66.6 µM (inactive)

## CCOC(=O)c1c(NC(=O)CSc2nnc(C)c(=O)[nH]2)sc2c1CCCC2
[8]
  IC50: 9.34 µM (active)
[9]
  IC50: 62.1 µM (active)

## CCOC(=O)C1CCCN(S(=O)(=O)c2cc(Br)cc3c2N(C(=O)C2CC2)CC3)C1 (stereo not drawn)
[4]
  EC50: > 79.4 µM (not active)
[5]
  EC50: > 79.4 µM (not active)
[6]
  EC50: > 79.4 µM (not active)

## COc1ccc(-c2cc(C(F)F)n3ncc(C(=O)N4CCCc5ccccc54)c3n2)cc1
[4]
  EC50: > 79.4 µM (not active)
[5]
  EC50: > 79.4 µM (not active)
[6]
  EC50: > 79.4 µM (not active)

## Cc1cc(CSC(=N)N)c(CSC(=N)N)cc1C
[10]
  EC50: > 50 µM (active)
[11]
  EC50: 2.11 µM (active)

## C/C(=N\NC(=S)NCCc1ccccc1)c1ccc(Cl)cc1Cl
[12]
  EC50: 4.66 µM (active)
[13]
  EC50: > 150 µM (inconclusive)
[14]
  EC50: 21.2 µM (active)
[7]
  IC50: > 66.6 µM (inactive)

## CCCCCCCOc1ccc(OC(=O)c2ccncc2)cc1
[15]
  IC50: > 80 µM (inactive)

## CC(=O)N1CCc2cc(Br)cc(S(=O)(=O)NCCCN(C)Cc3ccccc3)c21
[11]
  EC50: 0.149 µM (active)

## CCOC(=O)C1(Cc2cccc(F)c2)CCN(Cc2cnc(C)s2)CC1
[11]
  EC50: 0.944 µM (active)

## O=C(CNC(=O)C(c1ccccc1)c1ccccc1)N/N=C/c1cccnc1
[16]
  IC50: 5.72 µM (not active)

## COc1ccc([C@H]2CC(=O)C=C(c3ccc(OC)cc3OC)C2)cc1
[15]
  IC50: > 80 µM (inactive)

## Cc1ccccc1C(=O)NNC(=S)NC(=O)c1cccs1
[12]
  EC50: 3.53 µM (active)
[13]
  EC50: > 150 µM (not active)
[14]
  EC50: 18.2 µM (active)
[11]
  EC50: 5.96 µM (active)
[17]
  CC50: > 25 µM (active)

## CCOC(=O)c1cnc(Nc2nc3ccccc3o2)nc1CSC(=S)N1CCCCC1
[18]
  EC50: > 60 µM (not active)
[19]
  EC50: 7.71 µM (active)
[20]
  EC50: > 120 µM (not active)
[1]
  CC50: > 40 µM (active)
[2]
  CC50: 9.21 µM (active)
[3]
  IC50: 2.4 µM (active)

## O=C(c1cc(COc2ccc(F)cc2Cl)on1)N1CCCC(OCc2cccnc2)C1 (stereo not drawn)
[4]
  EC50: > 79.4 µM (not active)
[5]
  EC50: > 79.4 µM (not active)
[6]
  EC50: > 79.4 µM (not active)

## CCOC(=O)c1ccccc1NC(=O)c1cn(-c2ccc(C)c(C)c2)c(=O)c2ccccc12
[4]
  EC50: > 79.4 µM (not active)
[5]
  EC50: > 79.4 µM (not active)
[6]
  EC50: > 79.4 µM (not active)
